Measurements as given in paper PMC7051184, “C9orf72 arginine-rich dipeptide repeat proteins disrupt karyopherin-mediated nuclear import” (eLife, 2020).
Where a SMILES comes first, the peptide text is derived from it.

What was measured:
BSA = experiment: Bead halo assay, biotinylated BSA-coated beads (non-specific control); format: binding; conditions: AF488-labeled
Experimental: Purified WT importin β (pKW485) diluted to 10 µM in XB was combined with 10-molar excess of Alexa Fluor 647 NHS ester (ThermoFisher), using freshly-prepared 10 mM dye in anhydrous DMSO. After incubation on ice for 2 hr, the sample was dialyzed in PBS and concentrated on 30kD MWCO filter (Millipore Sigma) before storage. A similar protocol was used to label BSA with 10-molar excess Sulfo-NHS-LC-biotin (ThermoFisher), followed by dialysis in PBS.
(§1) The bead halo assay was carried out as described with minor modifications ([Patel and Rexach, 2008]), using […] polystyrene beads coated with neutravidin (for biotinylated proteins) or glutathione (for GST-fusion proteins) (Spherotech, Lake Forest, IL). Beads were coated overnight at 4°C at saturating concentrations per manufacturers’ instructions and rinsed 2x in binding buffer (20 mM HEPES [pH 7.4], 150 mM KOAc, 2 mM Mg(OAc)2, 1 mM DTT, 0.1% Tween-20). Immediately prior to the assay, fluorescent bait proteins and beads were combined with 4x assay buffer (40 mM EDTA, 40 mg/ml BSA, 500 mM NaCl, and 0.2% Tween) to a total of 40 µL per well, in optical glass-bottom 96-well plates (Cellvis, Mountain View, CA). Reactions were allowed to equilibrate at room temperature for a minimum of 30 min prior to imaging at 100x on an LSM800 confocal microscope (Zeiss, Oberkochen, Germany). […]

Nup100(1-307) = format: binding, S. cerevisiae; conditions: AF488-labeled
Experimental: (§2) The expression of GST- Nsp1(497-609) in BL21(DE3) cells grown in LB media was induced at OD600nm = 0.4–0.6, followed by incubation at 37°C for 3–5 hr. The GST-tagged S. cerevisiae pGEX-Nup100(1-307), Nup100(1-610), Nup116(348-458) and Nup116(348-458)F > A were expressed in T7 Shuffle cells (NEB) that were grown in Dynamite media ([Taylor et al., 2017]) until OD600nm = 0.9 before induction with IPTG at 37°C for 3 hr. All the GST-tagged Nup fragments were purified using glutathione-sepharose affinity chromatography, as described for the GST-GFP-NLS above, and dialyzed into PBS before storage.
(§3) The bead halo assay was carried out as described with minor modifications ([Patel and Rexach, 2008]), using […] polystyrene beads coated with neutravidin (for biotinylated proteins) or glutathione (for GST-fusion proteins) (Spherotech, Lake Forest, IL). Beads were coated overnight at 4°C at saturating concentrations per manufacturers’ instructions and rinsed 2x in binding buffer (20 mM HEPES [pH 7.4], 150 mM KOAc, 2 mM Mg(OAc)2, 1 mM DTT, 0.1% Tween-20). Immediately prior to the assay, fluorescent bait proteins and beads were combined with 4x assay buffer (40 mM EDTA, 40 mg/ml BSA, 500 mM NaCl, and 0.2% Tween) to a total of 40 µL per well, in optical glass-bottom 96-well plates (Cellvis, Mountain View, CA). Reactions were allowed to equilibrate at room temperature for a minimum of 30 min prior to imaging at 100x on an LSM800 confocal microscope (Zeiss, Oberkochen, Germany). Intensity profiles comparing the maximum rim intensity to the background were plotted in ImageJ (NIH) by an investigator blinded to experimental conditions.

Nup100(1-610) = format: binding, S. cerevisiae; conditions: AF488-labeled
Experimental: as §2, §3

Nsp1(497-609) = experiment: Bead halo assay, GST-Nsp1(497-609) FxFG domain; format: binding, S. cerevisiae; conditions: AF488-labeled
Experimental: as §2
as §1, with “CA).” for “CA). Reactions were allowed to equilibrate at room temperature for a minimum of 30 min prior to imaging at 100x on an LSM800 confocal microscope (Zeiss, Oberkochen, Germany).”

Nup133 = experiment: DPR aggregation assay and western blot, Nup133; format: biochemical, human; conditions: 100 µM 10mer in 2.5 mg/ml HEK lysate, normalized to untreated HEK
Experimental: (§4) Supernatant and pellet fractions (for all 5 DPRs, and control/buffer only) were prepared as in the nuclear transport assays, by adding 100 µM 10mers to 2.5 mg/ml HEK lysate in 100 µL TRB. Supernatants were boiled in Laemmli (BioRad) for 5 min. Pellets were boiled for 15 min followed by sonication in order to fully disperse aggregates for SDS-PAGE. Equal volumes of supernatant and pellet fractions were run on 4–12% Bolt Bis-Tris Plus gels (ThermoFisher), transferred to nitrocellulose membrane using an iBlot2 dry blotting system (ThermoFisher). Protein loading was analyzed by BLOT-Faststain (G-biosciences, St. Louis, MO), according to the manufacterers’ instructions. For immunodetection, membranes were blocked with 5% non-fat milk in TBST and probed by sequential incubation with the primary antibodies as detailed in the table below. Detection was by HRP-conjugated secondary antibodies/chemiluminescence using an ImageQuant LAS 4000 system (GE, Chicago, IL). To permit sequential probing of membranes without stripping, signals were quenched by incubation with prewarmed 30% H20_2 for 20 min ([Sennepin et al., 2009]). Band intensities were measured by ImageQuant software. For pellet vs. supernatant fractions, all were expressed as percent untreated control. For blots in Figure 1E, samples were run on 4–20% SDS PAGE minigels (ThermoFisher) and blotted to PVDF membranes (Immun-Blot PVDF, Bio-Rad) using the Bio-Rad TransBlot Turbo apparatus, and probed as above. The chemiluminescence signal was captured with a Bio-Rad ChemiDoc XRS+ digital imaging system.

Nup62 = experiment: DPR aggregation assay and western blot, Nup62; format: biochemical, human; conditions: 100 µM 10mer in 2.5 mg/ml HEK lysate, normalized to untreated HEK
Experimental: as §4

Nup54 = experiment: DPR aggregation assay and western blot, Nup54; format: biochemical, human; conditions: 100 µM 10mer in 2.5 mg/ml HEK lysate; Blot 1; normalized to untreated HEK
Experimental: as §4, with “For blots in Figure 1E, samples were run on 4–20% SDS PAGE minigels (ThermoFisher) and blotted to PVDF membranes (Immun-Blot PVDF, Bio-Rad) using the Bio-Rad TransBlot Turbo apparatus, and probed as above. The chemiluminescence signal was captured with a Bio-Rad ChemiDoc XRS+ digital imaging system.” left out

Matrin-3 = experiment: DPR aggregation assay and western blot, Matrin-3; format: biochemical, human; conditions: normalized to untreated HEK cells on the same membrane
Experimental: as §4

hnRNPA1 = experiment: DPR aggregation assay and western blot, hnRNPA1; format: biochemical, human; conditions: normalized to untreated HEK cells on the same membrane
Experimental: as §4

DDX3X = experiment: DPR aggregation assay and western blot, DDX3X; format: biochemical, human; conditions: normalized to untreated HEK cells on the same membrane
Experimental: as §4

N=C(N)NCCC[C@H](NC(=O)[C@@H]1CCCN1C(=O)[C@H](CCCNC(=N)N)NC(=O)[C@@H]1CCCN1C(=O)[C@H](CCCNC(=N)N)NC(=O)[C@@H]1CCCN1C(=O)[C@H](CCCNC(=N)N)NC(=O)[C@@H]1CCCN1C(=O)[C@H](CCCNC(=N)N)NC(=O)[C@@H]1CCCN1C(=O)[C@H](CCCNC(=N)N)NC(=O)[C@@H]1CCCN1C(=O)[C@H](CCCNC(=N)N)NC(=O)[C@@H]1CCCN1C(=O)[C@H](CCCNC(=N)N)NC(=O)[C@@H]1CCCN1C(=O)[C@H](CCCNC(=N)N)NC(=O)[C@@H]1CCCN1C(=O)[C@H](CCCNC(=N)N)NC(=O)[C@@H]1CCCN1)C(=O)O [PR10] (H-PRPRPRPRPRPRPRPRPRPR-OH; N-terminus and C-terminus assumed)
Binding to BSA-coated beads (BSA; 200 nM, binding buffer): modest non-specific binding | Nonspecific binding to control beads (BSA; 1 mg/ml neuronal lysate added): nonspecific binding decreased | Binding to Nup100 GLFG-domain (halo intensity) (Nup100(1-307); binding buffer): modest selective binding | FG-binding with added unlabeled importin β (Nup100(1-307); + unlabeled importin β): FG-binding could be augmented | Binding to Nup100 GLFG-domain (halo intensity) (Nup100(1-610); binding buffer): modest selective binding | FG-binding with added unlabeled importin β (Nup100(1-610); + unlabeled importin β): FG-binding could be augmented | FG-binding with added unlabeled importin β (Nsp1(497-609)): FG-binding could be augmented | Nup133 band density, Pellet (Nup133; Blot 1): 156.5 % control | Nup133 band density, Supernatant (Nup133; Blot 1): 45.6 % control | Nup133 band density, Pellet (Nup133; Blot 2): 194.3 % control | Nup133 band density, Supernatant (Nup133; Blot 2): 40.2 % control | Nup62 band density, Pellet (Nup62; Blot 1): 204.0 % control | Nup62 band density, Supernatant (Nup62; Blot 1): 154.3 % control | Nup62 band density, Pellet (Nup62; Blot 2): 227.1 % control | Nup62 band density, Supernatant (Nup62; Blot 2): 111.0 % control | Nup54 band density, Pellet (Nup54): 143.4 % control | Nup54 band density, Supernatant (Nup54): 96.8 % control | Matrin-3 band density, % control (Matrin-3; Pellet, Blot 1): 407.8 % control | Matrin-3 band density, % control (Matrin-3; Pellet, Blot 2): 159.1 % control | Matrin-3 band density, % control (Matrin-3; Supernatant, Blot 1): 25.9 % control | Matrin-3 band density, % control (Matrin-3; Supernatant, Blot 2): 42.9 % control | hnRNPA1 band density, % control (hnRNPA1; Pellet, Blot 1): 165.2 % control | hnRNPA1 band density, % control (hnRNPA1; Pellet, Blot 2): 367.1 % control | hnRNPA1 band density, % control (hnRNPA1; Supernatant, Blot 1): 61.7 % control | hnRNPA1 band density, % control (hnRNPA1; Supernatant, Blot 2): 58.6 % control | DDX3X band density, % control (DDX3X; Pellet, Blot 1): 156.6 % control | DDX3X band density, % control (DDX3X; Pellet, Blot 2): 221.4 % control | DDX3X band density, % control (DDX3X; Supernatant, Blot 1): 10.9 % control | DDX3X band density, % control (DDX3X; Supernatant, Blot 2): 1.8 % control
